Data set [1] is described as follows: Bivalirudin solubility and precipitation in aqueous solutions. In kind it is physicochemical. As for the experimental part:
Direct thrombin inhibitor bivalirudin was formulated in a lyophilized formulation containing 50 mg/mL of bivalirudin, 25 mg/mL of mannitol, and NaOH for pH adjustment to 5-6. […] The lyophilized bivalirudin was reconstituted with 5 mL water to a concentration of 50 mg/mL.

A short description of data set [2]: Absorption of topically applied bivalirudin: prothrombin time on homogenized ex vivo mouse skin samples. In kind it is in vitro ADME. Conditions: reconstituted bivalirudin 50 mg/mL applied to ex vivo mouse skin for 0, 5 or 15 minutes, then washed. As for the experimental part: Reconstituted bivalirudin was applied to ex vivo mouse skin samples for 0, 5, or 15 minutes then repeatedly washed, the samples were homogenized, and finally a prothrombin time was run on the homogenized skin samples. […] FIG. 10 illustrates absorption of topically applied bivalirudin by measuring prothrombin time.

On to `CC[C@H](C)[C@H](NC(=O)[C@H](CCC(=O)O)NC(=O)[C@H](CCC(=O)O)NC(=O)[C@H](Cc1ccccc1)NC(=O)[C@H](CC(=O)O)NC(=O)CNC(=O)[C@H](CC(N)=O)NC(=O)CNC(=O)CNC(=O)CNC(=O)CNC(=O)[C@@H]1CCCN1C(=O)[C@H](CCCNC(=N)N)NC(=O)[C@@H]1CCCN1C(=O)[C@H](N)Cc1ccccc1)C(=O)N1CCC[C@H]1C(=O)N[C@@H](CCC(=O)O)C(=O)N[C@@H](CCC(=O)O)C(=O)N[C@@H](Cc1ccc(O)cc1)C(=O)N[C@@H](CC(C)C)C(=O)O` [bivalirudin], for which, in data set [1], the “solubility: influence of pH” value is “influenced by pH”; the “solubility: influence of temperature and addition of mannitol” value is given as “not affected”. In addition, the “absorption by skin and retained function (prothrombin time of homogenized skin)” value in data set [2] was “is absorbed and retains function”.

Values taken from patent US20250177502A1, “THROMBIN AND FIBRINOGEN AS TARGETS FOR ATOPIC DERMATITIS DIAGNOSIS AND TREATMENT” (Children's Hospital Medical Center, priority 2022, published 2025).
